Target: Gastrin/cholecystokinin type B receptor (Cavia porcellus)
Experiment: In vitro affinity to the cholecystokinin type B receptor in guinea pig cortex assayed using [125I]BH-CCK-8 as radioligand

| IC50 [nM] | Structure (SMILES) |
| --- | --- |
| 3.4 | Cc1ccc2c(c1)N(CC(=O)NC(C)(C)C)C(=O)[C@H](NC(=O)Nc1cccc(Cl)c1)C[C@@H]2C(C)C [N-tert-Butyl-2-{(3R,5R)-3-[3-(3-chloro-phenyl)-ureido]-5-isopropyl-8-methyl-2-oxo-2,3,4,5-tetrahydro-benzo[b]azepin-1-yl}-acetamide] |
| 0.6 | Cc1ccc2c(c1)N(CC(=O)NC(C)(C)C)C(=O)[C@H](NC(=O)Nc1cccc(Cl)c1)C[C@@H]2C1CCCCC1 [N-tert-Butyl-2-{(3R,5R)-3-[3-(3-chloro-phenyl)-ureido]-5-cyclohexyl-8-methyl-2-oxo-2,3,4,5-tetrahydro-benzo[b]azepin-1-yl}-acetamide] |
| 32 | Cc1ccc2c(c1)[C@@H](c1ccccc1)C[C@@H](NC(=O)Nc1cccc(Cl)c1)C(=O)N2CC(=O)NC(C)(C)C [N-tert-Butyl-2-{(3R,5R)-3-[3-(3-chloro-phenyl)-ureido]-7-methyl-2-oxo-5-phenyl-2,3,4,5-tetrahydro-benzo[b]azepin-1-yl}-acetamide] |
| 35 | Cc1ccc(NC(=O)N[C@@H]2C[C@H](c3ccccc3)c3ccccc3N(CC(=O)NC(C)(C)C)C2=O)cc1 [N-tert-Butyl-2-[(3R,5R)-2-oxo-5-phenyl-3-(3-p-tolyl-ureido)-2,3,4,5-tetrahydro-benzo[b]azepin-1-yl]-acetamide] |
| 10.1 | Cc1cccc(NC(=O)N[C@@H]2C[C@H](c3ccccc3)c3ccccc3N(CC(=O)NC(C)(C)C)C2=O)c1 [N-tert-Butyl-2-[(3R,5R)-2-oxo-5-phenyl-3-(3-m-tolyl-ureido)-2,3,4,5-tetrahydro-benzo[b]azepin-1-yl]-acetamide] |
| 2.2 | Cc1ccc2c(c1)N(CC(=O)OC(C)(C)C)C(=O)[C@H](NC(=O)Nc1cccc(Cl)c1)C[C@@H]2c1ccccc1 [{(3R,5R)-3-[3-(3-Chloro-phenyl)-ureido]-8-methyl-2-oxo-5-phenyl-2,3,4,5-tetrahydro-benzo[b]azepin-1-yl}-acetic acid tert-butyl ester] |
| 24 | CC(C)(C)NC(=O)CN1C(=O)[C@H](NC(=O)Nc2cccc(Cl)c2)C[C@H](c2ccccc2)c2cc(Cl)ccc21 [N-tert-Butyl-2-{(3R,5R)-7-chloro-3-[3-(3-chloro-phenyl)-ureido]-2-oxo-5-phenyl-2,3,4,5-tetrahydro-benzo[b]azepin-1-yl}-acetamide] |
| 1.4 | Cc1ccc2c(c1)N(CC(=O)NC(C)(C)C)C(=O)[C@H](NC(=O)Nc1cccc(Cl)c1)C[C@@H]2Cc1ccccc1 [2-{(3R,5S)-5-Benzyl-3-[3-(3-chloro-phenyl)-ureido]-8-methyl-2-oxo-2,3,4,5-tetrahydro-benzo[b]azepin-1-yl}-N-tert-butyl-acetamide] |
| 30.4 | COc1cccc(NC(=O)N[C@@H]2C[C@H](c3ccccc3)c3ccccc3N(CC(=O)NC(C)(C)C)C2=O)c1 [N-tert-Butyl-2-{(3R,5R)-3-[3-(3-methoxy-phenyl)-ureido]-2-oxo-5-phenyl-2,3,4,5-tetrahydro-benzo[b]azepin-1-yl}-acetamide] |
| 7.6 | CCC(C)(C)NC(=O)CN1C(=O)[C@H](NC(=O)Nc2cccc(Cl)c2)C[C@H](c2ccccc2)c2ccccc21 [2-{(3R,5R)-3-[3-(3-Chloro-phenyl)-ureido]-2-oxo-5-phenyl-2,3,4,5-tetrahydro-benzo[b]azepin-1-yl}-N-(1,1-dimethyl-propyl)-acetamide] |
| 55 | Cc1ccccc1NC(=O)N[C@@H]1C[C@H](c2ccccc2)c2ccccc2N(CC(=O)NC(C)(C)C)C1=O [N-tert-Butyl-2-[(3R,5R)-2-oxo-5-phenyl-3-(3-o-tolyl-ureido)-2,3,4,5-tetrahydro-benzo[b]azepin-1-yl]-acetamide] |
| 2.5 | Cc1cccc(NC(=O)N[C@@H]2C[C@H](c3ccccc3)c3ccccc3N(CC(=O)OC(C)(C)C)C2=O)c1 [[(3R,5R)-2-Oxo-5-phenyl-3-(3-m-tolyl-ureido)-2,3,4,5-tetrahydro-benzo[b]azepin-1-yl]-acetic acid tert-butyl ester] |
| 4 | CC(C)(C)NC(=O)CN1C(=O)[C@H](NC(=O)Nc2cccc(Cl)c2)C[C@H](c2cccc(Cl)c2)c2ccccc21 [N-tert-Butyl-2-{(3R,5R)-5-(3-chloro-phenyl)-3-[3-(3-chloro-phenyl)-ureido]-2-oxo-2,3,4,5-tetrahydro-benzo[b]azepin-1-yl}-acetamide] |
| 1.5 | CN(C(=O)CN1C(=O)[C@H](NC(=O)Nc2cccc(Cl)c2)C[C@H](c2ccccc2)c2ccccc21)C(C)(C)C [N-tert-Butyl-2-{(3R,5R)-3-[3-(3-chloro-phenyl)-ureido]-2-oxo-5-phenyl-2,3,4,5-tetrahydro-benzo[b]azepin-1-yl}-N-methyl-acetamide] |
